In the NIST ThermoML archive (doi:10.1016/j.jct.2007.07.002):
Numbers after ± are expanded uncertainties.

Conditions: Gas, double Helmholtz acoustic resonator

N [ammonia]
Conditions	kinematic viscosity [m2/s]	speed of sound [m/s]
300 K, 223.53 kPa	6.47e-06 ± 1.4e-07	431 ± 0.26
300 K, 259.87 kPa	5.47e-06 ± 3.2e-07	429.55 ± 0.26
300 K, 329.51 kPa	4.32e-06 ± 5.2e-08	428.07 ± 0.26
300 K, 361.99 kPa	3.95e-06 ± 7.2e-08	426.77 ± 0.26
300 K, 447.86 kPa	3.14e-06 ± 3.8e-08	424.67 ± 0.26
300 K, 465.77 kPa	3.02e-06 ± 5.4e-08	423.73 ± 0.26
300 K, 568.68 kPa	2.45e-06 ± 2.9e-08	421.02 ± 0.25
300 K, 569.79 kPa	2.45e-06 ± 4.4e-08	420.63 ± 0.25
300 K, 676.75 kPa	2.03e-06 ± 2.4e-08	417.61 ± 0.25
300 K, 692.8 kPa	1.98e-06 ± 5.6e-08	416.7 ± 0.25
300 K, 802.37 kPa	1.71e-06 ± 2.6e-08	413.01 ± 0.25
300 K, 802.82 kPa	1.7e-06 ± 2e-08	413.38 ± 0.25
315 K, 250.83 kPa	6.41e-06 ± 7.8e-08	441.42 ± 0.27
315 K, 378.83 kPa	4.19e-06 ± 6.8e-08	438.52 ± 0.26
315 K, 506.43 kPa	3.08e-06 ± 3.7e-08	435.46 ± 0.26
315 K, 661.04 kPa	2.34e-06 ± 2.8e-08	431.69 ± 0.26
315 K, 791.02 kPa	1.92e-06 ± 2.3e-08	428.35 ± 0.26
315 K, 938.74 kPa	1.59e-06 ± 1.9e-08	424.43 ± 0.26
315 K, 1080.9 kPa	1.36e-06 ± 1.6e-08	420.46 ± 0.25
315 K, 1285 kPa	1.13e-06 ± 1.4e-08	414.39 ± 0.25
330 K, 308.27 kPa	5.77e-06 ± 1.5e-07	450.9 ± 0.27
330 K, 473.84 kPa	3.68e-06 ± 4.4e-08	447.68 ± 0.27
330 K, 664.29 kPa	2.58e-06 ± 3.1e-08	443.84 ± 0.27
330 K, 822.59 kPa	2.06e-06 ± 2.5e-08	440.54 ± 0.27
330 K, 977.41 kPa	1.71e-06 ± 2.1e-08	437.21 ± 0.26
330 K, 1142.1 kPa	1.44e-06 ± 1.7e-08	433.54 ± 0.26
330 K, 1294.8 kPa	1.25e-06 ± 1.5e-08	430.01 ± 0.26
330 K, 1480.5 kPa	1.08e-06 ± 1.3e-08	425.54 ± 0.26
330 K, 1640.8 kPa	9.57e-07 ± 1.2e-08	421.5 ± 0.25
330 K, 1792 kPa	8.66e-07 ± 1e-08	417.52 ± 0.25
330 K, 1945.8 kPa	7.91e-07 ± 9.5e-09	413.28 ± 0.25
345 K, 297.74 kPa	6.5e-06 ± 7.8e-08	461.31 ± 0.28
345 K, 504.54 kPa	3.78e-06 ± 4.5e-08	457.91 ± 0.28
345 K, 708.88 kPa	2.67e-06 ± 3.2e-08	454.47 ± 0.27
345 K, 914.14 kPa	2.04e-06 ± 2.5e-08	450.88 ± 0.27
345 K, 1123.2 kPa	1.64e-06 ± 2e-08	447.09 ± 0.27
345 K, 1332.1 kPa	1.36e-06 ± 1.6e-08	443.17 ± 0.27
345 K, 1537 kPa	1.16e-06 ± 1.4e-08	439.19 ± 0.26
345 K, 1744.6 kPa	1e-06 ± 1.2e-08	435.01 ± 0.26
345 K, 1955.1 kPa	8.8e-07 ± 1.1e-08	430.58 ± 0.26
345 K, 2315.6 kPa	7.21e-07 ± 8.7e-09	422.55 ± 0.25
345 K, 2530 kPa	6.5e-07 ± 7.8e-09	417.46 ± 0.25
345 K, 2769 kPa	5.84e-07 ± 7e-09	411.45 ± 0.25
360 K, 242.7 kPa	8.74e-06 ± 1.1e-07	471.71 ± 0.28
360 K, 453.28 kPa	4.68e-06 ± 8.2e-08	468.86 ± 0.28
360 K, 661.35 kPa	3.16e-06 ± 3.8e-08	465.91 ± 0.28
360 K, 865.15 kPa	2.39e-06 ± 2.9e-08	462.91 ± 0.28
360 K, 1069.7 kPa	1.9e-06 ± 2.3e-08	459.84 ± 0.28
360 K, 1277.8 kPa	1.57e-06 ± 1.9e-08	456.62 ± 0.27
360 K, 1481.2 kPa	1.34e-06 ± 1.6e-08	453.38 ± 0.27
360 K, 1690.7 kPa	1.16e-06 ± 1.4e-08	449.97 ± 0.27
360 K, 1894.8 kPa	1.02e-06 ± 1.2e-08	446.53 ± 0.27
360 K, 2277.4 kPa	8.28e-07 ± 9.9e-09	439.83 ± 0.27
360 K, 2480.7 kPa	7.49e-07 ± 9e-09	436.1 ± 0.26
360 K, 2738.8 kPa	6.66e-07 ± 8e-09	431.2 ± 0.26
360 K, 3050.5 kPa	5.85e-07 ± 7e-09	424.97 ± 0.26
360 K, 3365.4 kPa	5.19e-07 ± 6.2e-09	418.3 ± 0.25
375 K, 260.57 kPa	1.01e-05 ± 3.8e-06	480.64 ± 1.5
375 K, 483.31 kPa	4.9e-06 ± 8e-07	478.26 ± 0.4
375 K, 684.74 kPa	3.42e-06 ± 2.2e-07	475.65 ± 0.29
375 K, 897.66 kPa	2.57e-06 ± 6e-08	473 ± 0.28
375 K, 1130.7 kPa	1.96e-06 ± 6.8e-08	469.93 ± 0.28
375 K, 1341.7 kPa	1.63e-06 ± 4.2e-08	467.14 ± 0.28
375 K, 1583.8 kPa	1.37e-06 ± 1.6e-08	463.89 ± 0.28
375 K, 1793.4 kPa	1.2e-06 ± 2e-08	461.01 ± 0.28
375 K, 2026.3 kPa	1.04e-06 ± 1.4e-08	457.7 ± 0.28
375 K, 2290.4 kPa	9.12e-07 ± 1.1e-08	453.87 ± 0.27
375 K, 2599.9 kPa	7.94e-07 ± 1.2e-08	449.23 ± 0.27
375 K, 2933.1 kPa	6.9e-07 ± 8.3e-09	444.04 ± 0.27
375 K, 3140.5 kPa	6.38e-07 ± 8.2e-09	440.69 ± 0.27
375 K, 3379.2 kPa	5.88e-07 ± 9e-09	436.74 ± 0.26
